According to patent US11883680B2, “Method and apparatus for tightening skin and other tissues” (The General Hospital Corporation, priority 2016, dated 2024):

Tested on: human skin
Assay: mechanical testing of skin sample sites with a tensiometer (elastic modulus, peak load)
Conditions: fully treated (full thickness needling + 0.1% Rose Bengal in saline + green light LED array) vs untreated and needled-only skin
Procedure: Additionally, mechanical testing was performed on sample sites using a tensiometer to measure elastic modulus before and after treatment. The elastic modulus and peak load were recorded on samples that were (1) untreated (2) partially treated (needled only), and (3) fully treated (needled plus agent application and irradiation). Full treatment included full thickness needling of the skin surface followed by application of a 0.1% solution of Rose Bengal in saline and irradiation with a multi-light-emitting LED diode array that delivered green light to the sample surface.

## O=C([O-])c1c(Cl)c(Cl)c(Cl)c(Cl)c1-c1c2cc(I)c(=O)c(I)c-2oc2c(I)c([O-])c(I)cc12.[Na+].[Na+] [Rose Bengal]
  increase in peak load: three-fold
  increase in the elastic modulus: five-fold
